Test system: 653999-131-R-J2-PDC complex spheroids, growth inhibition
Test: Anticancer human tumor 653999-131-R-J2-PDC patient-derived lung adenocarcinoma cell line growth inhibition [RAS]
Details: for IC50: curve of first compound; for viability, T/C: stronger effect = lower value
Procedure, shortened: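 Agents were tested in combination matrices in half-log decrements from a top concentration at or near clinical Cmax (10 microM if undetermined). Targets were multi-cell spheroids of tumour lines plus HUVEC and MSC stromal cells.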
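Further: spheroids exposed to the agents for seven days before the readout.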

## Nc1ccn(C2OC(CO)C(O)C2(F)F)c(=O)n1 (centres undefined) + CCn1c(-c2cc(N3CCN(C)CC3)cnc2C(C)OC)c2c3cc(ccc31)-c1csc(n1)CC(NC(=O)C1CC1C)C(=O)N1CCCC(N1)C(=O)OCC(C)(C)C2
Second compound 0.000949 µM
  IC50: 0.0141 µM
Second compound 0.003 µM
  IC50: 0.0063 µM
Second compound 0.00949 µM
  IC50: < 0.00316 µM
Second compound 0.03 µM
  IC50: < 0.00316 µM
Second compound 0.0949 µM
  IC50: < 0.00316 µM
Second compound 0.3 µM
  IC50: < 0.00316 µM
Second compound 0.000949 µM, first compound 0.00316 µM
  viability, T/C: 67.6%
Second compound 0.000949 µM, first compound 0.01 µM
  viability, T/C: 57%
Second compound 0.000949 µM, first compound 0.0316 µM
  viability, T/C: 34.4%
Second compound 0.000949 µM, first compound 0.1 µM
  viability, T/C: 34.4%
Second compound 0.000949 µM, first compound 0.316 µM
  viability, T/C: 25.9%
Second compound 0.000949 µM, first compound 1 µM
  viability, T/C: 23%
Second compound 0.003 µM, first compound 0.00316 µM
  viability, T/C: 59.1%
Second compound 0.003 µM, first compound 0.01 µM
  viability, T/C: 43.1%
Second compound 0.003 µM, first compound 0.0316 µM
  viability, T/C: 31.8%
Second compound 0.003 µM, first compound 0.1 µM
  viability, T/C: 20.8%
Second compound 0.003 µM, first compound 0.316 µM
  viability, T/C: 16.2%
Second compound 0.003 µM, first compound 1 µM
  viability, T/C: 19.7%
Second compound 0.00949 µM, first compound 0.00316 µM
  viability, T/C: 45.6%
Second compound 0.00949 µM, first compound 0.01 µM
  viability, T/C: 30.9%
Second compound 0.00949 µM, first compound 0.0316 µM
  viability, T/C: 25%
Second compound 0.00949 µM, first compound 0.1 µM
  viability, T/C: 19.3%
Second compound 0.00949 µM, first compound 0.316 µM
  viability, T/C: 18.2%
Second compound 0.00949 µM, first compound 1 µM
  viability, T/C: 15.1%
Second compound 0.03 µM, first compound 0.00316 µM
  viability, T/C: 37.3%
Second compound 0.03 µM, first compound 0.01 µM
  viability, T/C: 29.4%
Second compound 0.03 µM, first compound 0.0316 µM
  viability, T/C: 20.3%
Second compound 0.03 µM, first compound 0.1 µM
  viability, T/C: 14.7%
Second compound 0.03 µM, first compound 0.316 µM
  viability, T/C: 12.8%
Second compound 0.03 µM, first compound 1 µM
  viability, T/C: 11.6%
Second compound 0.0949 µM, first compound 0.00316 µM
  viability, T/C: 26.7%
Second compound 0.0949 µM, first compound 0.01 µM
  viability, T/C: 30.3%
Second compound 0.0949 µM, first compound 0.0316 µM
  viability, T/C: 18.8%
Second compound 0.0949 µM, first compound 0.1 µM
  viability, T/C: 16.7%
Second compound 0.0949 µM, first compound 0.316 µM
  viability, T/C: 11.7%
Second compound 0.0949 µM, first compound 1 µM
  viability, T/C: 11%
Second compound 0.3 µM, first compound 0.00316 µM
  viability, T/C: 25.9%
Second compound 0.3 µM, first compound 0.01 µM
  viability, T/C: 24.5%
Second compound 0.3 µM, first compound 0.0316 µM
  viability, T/C: 20.7%
Second compound 0.3 µM, first compound 0.1 µM
  viability, T/C: 18.4%
Second compound 0.3 µM, first compound 0.316 µM
  viability, T/C: 13.9%
Second compound 0.3 µM, first compound 1 µM
  viability, T/C: 12.8%

## CC1(C)CCC(Nc2ncc(C(F)(F)F)c(-c3c[nH]c4c(P(C)(C)=O)c(C#N)ccc34)n2)CN1 (centres undefined) + CCn1c(-c2cccnc2C(C)OC)c2c3cc(ccc31)N1CCOC(CC(NC(=O)C(C(C)C)N(C)C(=O)C3(F)CCN(C(=O)C#CC(C)(C)N(C)C)CC3)C(=O)N3CCCC(N3)C(=O)OCC(C)(C)C2)C1
Second compound 0.000949 µM
  IC50: > 0.3 µM
Second compound 0.003 µM
  IC50: > 0.3 µM
Second compound 0.00949 µM
  IC50: > 0.3 µM
Second compound 0.03 µM
  IC50: > 0.3 µM
Second compound 0.0949 µM
  IC50: > 0.3 µM
Second compound 0.3 µM
  IC50: > 0.3 µM
Second compound 0.000949 µM, first compound 0.000949 µM
  viability, T/C: 89.4%
Second compound 0.000949 µM, first compound 0.003 µM
  viability, T/C: 82.6%
Second compound 0.000949 µM, first compound 0.00949 µM
  viability, T/C: 81.1%
Second compound 0.000949 µM, first compound 0.03 µM
  viability, T/C: 79.7%
Second compound 0.000949 µM, first compound 0.0949 µM
  viability, T/C: 84.6%
Second compound 0.000949 µM, first compound 0.3 µM
  viability, T/C: 71.6%
Second compound 0.003 µM, first compound 0.000949 µM
  viability, T/C: 96%
Second compound 0.003 µM, first compound 0.003 µM
  viability, T/C: 84.2%
Second compound 0.003 µM, first compound 0.00949 µM
  viability, T/C: 79.5%
Second compound 0.003 µM, first compound 0.03 µM
  viability, T/C: 77.7%
Second compound 0.003 µM, first compound 0.0949 µM
  viability, T/C: 84.9%
Second compound 0.003 µM, first compound 0.3 µM
  viability, T/C: 71.2%
Second compound 0.00949 µM, first compound 0.000949 µM
  viability, T/C: 99.5%
Second compound 0.00949 µM, first compound 0.003 µM
  viability, T/C: 89.3%
Second compound 0.00949 µM, first compound 0.00949 µM
  viability, T/C: 84.9%
Second compound 0.00949 µM, first compound 0.03 µM
  viability, T/C: 72%
Second compound 0.00949 µM, first compound 0.0949 µM
  viability, T/C: 79.3%
Second compound 0.00949 µM, first compound 0.3 µM
  viability, T/C: 87.2%
Second compound 0.03 µM, first compound 0.000949 µM
  viability, T/C: 85.4%
Second compound 0.03 µM, first compound 0.003 µM
  viability, T/C: 83.9%
Second compound 0.03 µM, first compound 0.00949 µM
  viability, T/C: 71%
Second compound 0.03 µM, first compound 0.03 µM
  viability, T/C: 74.1%
Second compound 0.03 µM, first compound 0.0949 µM
  viability, T/C: 77.4%
Second compound 0.03 µM, first compound 0.3 µM
  viability, T/C: 76.9%
Second compound 0.0949 µM, first compound 0.000949 µM
  viability, T/C: 80.4%
Second compound 0.0949 µM, first compound 0.003 µM
  viability, T/C: 66.8%
Second compound 0.0949 µM, first compound 0.00949 µM
  viability, T/C: 67.5%
Second compound 0.0949 µM, first compound 0.03 µM
  viability, T/C: 68%
Second compound 0.0949 µM, first compound 0.0949 µM
  viability, T/C: 74%
Second compound 0.0949 µM, first compound 0.3 µM
  viability, T/C: 70.3%
Second compound 0.3 µM, first compound 0.000949 µM
  viability, T/C: 82.3%
Second compound 0.3 µM, first compound 0.003 µM
  viability, T/C: 71.7%
Second compound 0.3 µM, first compound 0.00949 µM
  viability, T/C: 63.8%
Second compound 0.3 µM, first compound 0.03 µM
  viability, T/C: 63.9%
Second compound 0.3 µM, first compound 0.0949 µM
  viability, T/C: 70.8%
Second compound 0.3 µM, first compound 0.3 µM
  viability, T/C: 64.5%
